Values of other authors as cited in PMC10673369, “Preliminary SAR of Novel Pleuromutilin–Polyamine Conjugates” (Microorganisms, 2023).

How the values were obtained:
Set-up in all cases: method as in PMID 22191527, PMID 27742734, PMID 23836172, PMID 30019769
[1] = tested on: aerobic Gram-positive bacteria; conditions: incl. MRSA, VISA, hVISA, VRSA, PRSP, multidrug-resistant S. pneumoniae, VRE; cited from earlier work
[2] = tested on: fastidious Gram-negative bacteria, including Haemophilus influenza and Moraxella catarrhalis; conditions: incl. Haemophilus influenza and Moraxella catarrhalis; cited from earlier work
[3] = tested on: non-fastidious Gram-negative bacteria; conditions: cited from earlier work

Structure (SMILES): C=C[C@]1(C)C[C@@H](OC(=O)CS[C@@H]2CC[C@@H](N)C[C@H]2O)[C@]2(C)[C@H](C)CC[C@]3(CCC(=O)[C@H]32)[C@@H](C)[C@@H]1O [Compound 6, lefamulin]
- Antibacterial activity against aerobic Gram-positive bacteria [1]: potent antibacterial activity
- Antibacterial activity against fastidious Gram-negative bacteria [2]: favorable to moderate activity
- Antibacterial activity against non-fastidious Gram-negative bacteria [3]: no activity
